These results are taken from publication PMC11844072, “Novel 5,6-dichlorobenzimidazole derivatives as dual BRAFWT and BRAFV600E inhibitors: design, synthesis, anti-cancer activity and molecular dynamics simulations” (BMC Chemistry, 2025).

Common to all, as to assay: NCI 60 single concentration growth inhibition
Holding throughout (format): cell-based, human

The test system of one test is A549/ATCC. The settings on record: Homo sapiens, Non-small cell lung cancer, read-out: GI%. The gist of the method: (§1)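 Cells are plated and left 24 h, and a time-zero plate is fixed at drug addition. Compound is then added for 48 h, the cells are fixed in cold TCA and stained with 0.4% SRB, and bound dye is solubilised in 10 mM Tris for reading at 515 nm.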
The next test concerns ACHN. The settings on record: Homo sapiens, Renal cancer, read-out: GI%. The method, boiled down:
as §1

In a further test the test system is HCT-116. The note with it: Homo sapiens, HCT-116, Colon cancer, read-out: GI%. The method, boiled down:
as §1

For another test, the system named is HS 578T. The note with it: Homo sapiens, Breast cancer, read-out: GI%. The gist of the method: as §1
The subject of the next test is KM12. The note with it: Homo sapiens, KM12, Colon cancer, read-out: GI%. The method, boiled down:
as §1

The subject of the next test is M14. The settings on record: Homo sapiens, M14, Melanoma, read-out: GI%. The method, boiled down:
as §1

The test system of a further test is MCF7. The note with it: Homo sapiens, MCF7, Breast cancer, read-out: GI%. The gist of the method: as §1
Another test relates to MDA-MB-468. The note with it: Homo sapiens, MDA-MB-468, Breast cancer, read-out: GI%. The gist of the method: as §1
For a further test, the system named is MOLT-4. The note with it: Homo sapiens, MOLT-4, Leukemia, read-out: GI%. The gist of the method:
(§2)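 Single-dose screen at 10 µM across the NCI-60 panel, then five concentrations (10-fold or ½ log dilutions) for selected compounds. Cells in RPMI 1640, 5% FBS, 2 mM L-glutamine, preincubated 24 h, then drug exposure 48 h at 37 °C. TCA fixation, SRB stain read at 515 nm; percent growth calculated against time-zero and untreated controls.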

The test system of a further test is NCI-H226. The settings on record: Homo sapiens, NCI-H226, Non-small cell lung cancer, read-out: GI%. The gist of the method:
as §1

The subject of a further test is NCI-H23. The note with it: Homo sapiens, NCI-H23, Non-small cell lung cancer, read-out: GI%. The method, boiled down: as §1
A further test relates to PC-3. The note with it: Homo sapiens, PC-3, Prostate cancer, read-out: GI%. The method, boiled down: as §1
A further test concerns RXF 393. The settings on record: Homo sapiens, RXF 393, Renal cancer, read-out: GI%. The gist of the method:
as §1

In a further test the test system is SF-268. The note with it: Homo sapiens, SF-268, CNS cancer, read-out: GI%. The gist of the method: as §1
In a further test the test system is SF-295. The note with it: Homo sapiens, SF-295, CNS cancer, read-out: GI%. The method, boiled down:
as §1

The test system of the next test is SK-MEL-28. The settings on record: Homo sapiens, SK-MEL-28, Melanoma, read-out: GI%. The method, boiled down:
as §1

The test system of another test is SK-MEL-2. The note with it: Homo sapiens, SK-MEL-2, Melanoma, read-out: GI%. The method, boiled down: as §1
Another test relates to SK-OV-3. The note with it: Homo sapiens, SK-OV-3, Ovarian cancer, read-out: GI%. The method, boiled down: as §1
The subject of the next test is SN12C. The settings on record: Homo sapiens, Renal cancer, read-out: GI%. The method, boiled down:
as §1

A further test concerns SR. The note with it: Homo sapiens, Leukemia, read-out: GI%. The method, boiled down:
as §2

The subject of another test is T-47D. The settings on record: Homo sapiens, T47D, Breast cancer, read-out: GI%. The gist of the method:
as §1

A further test has as its system UACC-257. The note with it: Homo sapiens, UACC-257, Melanoma, read-out: GI%. The gist of the method: as §1

`COc1ccc(-c2nc3cc(Cl)c(Cl)cc3n2CC(=O)NN=Cc2ccc(OCC(=O)O)cc2)cc1` [Compound 10f, 2-(4-((2-(2-(5,6-Dichloro-2-(4-methoxyphenyl)-1H-benzo[d]imidazol-1-yl)acetyl)hydrazono)methyl)phenoxy)acetic acid]: the inhibition at 10 µM in the test with A549/ATCC, in the test on ACHN, in the test on HCT-116, with HS 578T, with KM12 and with M14 was < 5% each time. Besides, the inhibition at 10 µM in the test on MCF7 is 18.9%; in the test with MDA-MB-468 it was 6.38%; in the test on MOLT-4 it was < 5%; with NCI-H226, < 5%; with NCI-H23, < 5%; in the test with PC-3, 8.65%. The inhibition at 10 µM in the test with RXF 393, in the test with SF-268, with SF-295, in the test on SK-MEL-28, with SK-MEL-2 and with SK-OV-3 was < 5% in each case. Moreover, the inhibition at 10 µM with SN12C, with SR, in the test with T-47D and in the test on UACC-257 was < 5% each time.

In the case of `COC(=O)COc1cccc(C=NNC(=O)Cn2c(-c3ccc(OC)cc3)nc3cc(Cl)c(Cl)cc32)c1` [Compound 10g, Methyl-2-(3-((2-(2-(5,6-dichloro-2-(4-methoxyphenyl)-1H-benzo[d]imidazol-1-yl)acetyl)hydrazono)methyl)phenoxy)acetate], the inhibition at 10 µM in the test on A549/ATCC was < 5%; with ACHN it was < 5%; in the test with HCT-116, 10.6%; with HS 578T it was 13.9%; with KM12, < 5%; in the test on M14, < 5%. The inhibition at 10 µM in the test with MCF7 is 31.9%; with MDA-MB-468, 112%; in the test on MOLT-4, 30.4%; with NCI-H226 it was 8%; in the test with NCI-H23, < 5%; in the test on PC-3, 36.9%. Moreover, the inhibition at 10 µM was 32.9% with RXF 393; < 5% with SF-268; < 5% in the test on SF-295; < 5% in the test with SK-MEL-28; < 5% in the test on SK-MEL-2; < 5% in the test on SK-OV-3. Also, the inhibition at 10 µM in the test on SN12C is 40.7%; with SR, 78.3%; in the test on T-47D, 55.9%; in the test with UACC-257, < 5%.

As for `COC(=O)COc1ccc(C=NNC(=O)Cn2c(-c3ccc(OC)cc3)nc3cc(Cl)c(Cl)cc32)cc1` [Compound 10h, Methyl-2-(4-((2-(2-(5,6-dichloro-2-(4-methoxyphenyl)-1H-benzo[d]imidazol-1-yl)acetyl)hydrazono)methyl)phenoxy)acetate], the inhibition at 10 µM was < 5% in the test with A549/ATCC; 106% in the test with ACHN; 10.8% in the test on HCT-116; 72.2% in the test with HS 578T; < 5% in the test on KM12; 10.8% in the test on M14. In addition, the inhibition at 10 µM was 67.5% in the test with MCF7; 177% in the test with MDA-MB-468; 53.2% in the test with MOLT-4; < 5% with NCI-H226; < 5% in the test with NCI-H23; 74.4% in the test with PC-3. The inhibition at 10 µM is 85.7% in the test on RXF 393; < 5% in the test with SF-268; < 5% with SF-295; 31.7% with SK-MEL-28; 26.4% in the test on SK-MEL-2; < 5% in the test with SK-OV-3. In addition, the inhibition at 10 µM is 66.4% with SN12C, 81.1% with SR, 107% in the test on T-47D and < 5% in the test with UACC-257.

With `COc1ccc(-c2nc3cc(Cl)c(Cl)cc3n2CC(=O)NN=Cc2ccc(OC)c(O)c2)cc1` [Compound 10k, 2-(5,6-Dichloro-2-(4-methoxyphenyl)-1H-benzo[d]imidazol-1-yl)-N'-(3-hydroxy-4-methoxybenzylidene)acetohydrazide], the inhibition at 10 µM in the test on A549/ATCC was determined as 49.9%; in the test with ACHN it was 36.6%; with HCT-116 it was 22%; in the test on HS 578T it was 27.4%; in the test with KM12 it was 20.1%; in the test with M14, 34.7%. In addition, the inhibition at 10 µM in the test on MCF7 is 68%; in the test with MDA-MB-468 it was 71.2%; in the test with MOLT-4, 76.1%; with NCI-H226 it was 48.1%; in the test on NCI-H23, 21.1%; with PC-3, 56.6%. Besides, the inhibition at 10 µM with RXF 393 was 42.2%; in the test on SF-268, 45.6%; in the test with SF-295, 50%; in the test with SK-MEL-28 it was 17.3%; in the test on SK-MEL-2, 40.2%; in the test on SK-OV-3, < 5%. For the same compound, the inhibition at 10 µM turned out to be 16.3% in the test with SN12C, 52.2% in the test with SR, 43.4% in the test with T-47D and 40.1% in the test with UACC-257.

For `COc1ccc(-c2nc3cc(Cl)c(Cl)cc3n2CC(=O)NN=Cc2ccc(O)c(OC)c2)cc1` [Compound 10l, 2-(5,6-Dichloro-2-(4-methoxyphenyl)-1H-benzo[d]imidazol-1-yl)-N'-(4-hydroxy-3-methoxybenzylidene)acetohydrazide], the inhibition at 10 µM with A549/ATCC came out at 35.4%; in the test on ACHN, 32.4%; in the test with HCT-116, 31.6%; with HS 578T, 32.7%; with KM12 it was 25.4%; in the test on M14, 33%. The inhibition at 10 µM in the test with MCF7 worked out at 65.9%; in the test with MDA-MB-468, 99%; in the test with MOLT-4, 70.8%; with NCI-H226, 47.5%; in the test with NCI-H23, 15%; in the test with PC-3, 54.2%. Besides, the inhibition at 10 µM with RXF 393 worked out at 32.2%; with SF-268, 53.7%; in the test with SF-295, 38.1%; in the test on SK-MEL-28 it was 7.48%; with SK-MEL-2, 18.6%; with SK-OV-3 it was 6.44%. The inhibition at 10 µM came out at 19.9% with SN12C, 49.1% in the test with SR, 51.3% with T-47D and 36.3% in the test with UACC-257.

In the case of `COC(=O)COc1cc(C=NNC(=O)Cn2c(-c3ccc(OC)cc3)nc3cc(Cl)c(Cl)cc32)ccc1OC` [Compound 10o, Methyl-2-(5-((2-(2-(5,6-dichloro-2-(4-methoxyphenyl)-1H-benzo[d]imidazol-1-yl)acetyl)hydrazono)methyl)-2-methoxyphenoxy)acetate], the inhibition at 10 µM in the test on A549/ATCC was 8.33%; in the test with ACHN it was 71.3%; in the test with HCT-116, 22.9%; with HS 578T, 128%; with KM12, < 5%; with M14, 36.5%. Moreover, the inhibition at 10 µM with MCF7 was found to be 33.4%; in the test with MDA-MB-468, 118%; in the test with MOLT-4, 40.4%; with NCI-H226, 10.2%; with NCI-H23 it was 7.03%; in the test with PC-3, 51.2%. For the same compound, the inhibition at 10 µM was 129% in the test with RXF 393; 18.6% in the test on SF-268; < 5% with SF-295; < 5% in the test on SK-MEL-28; 26.6% in the test on SK-MEL-2; 24.1% in the test on SK-OV-3. The inhibition at 10 µM in the test with SN12C is 97.2%; in the test on SR, 90.9%; in the test with T-47D, 106%; in the test with UACC-257 it was 41.4%.
